Test results: PubChem BioAssay (NCI)
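Compound exposure: 48 hours, 5 concentrations, 96-well plates. Abbreviation: GI50, concentration required for 50% inhibition of growth. TGI: concentration producing complete growth inhibition.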

Columns and labels:
Test in all cases: growth of human tumour cells (NCI), 48 h
[1] = system: SN12C renal
[2] = system: CAKI-1 renal
[3] = system: KM12 colon
[4] = system: NCI-H460 lung
[5] = system: UO-31 renal
[6] = system: PC-3 prostate
[7] = system: HCT-15 colon
[8] = system: T-47D breast
[9] = system: HOP-62 NSCLC
[10] = system: SW-620 colon

## O=C(CN1CCN(C(=O)c2ccco2)CC1)Nc1ccc(Cl)cc1C(=O)c1ccccc1Cl
[1]
  GI50: 14.6 µM
  TGI: 44.7 µM
[2]
  GI50: 0.0273 µM
  TGI: 6.42 µM
[3]
  GI50: 7.33 µM
  TGI: 20.9 µM
[4]
  GI50: 13.9 µM
  TGI: 29 µM
[5]
  GI50: 2.28 µM
  TGI: 14.9 µM
[6]
  GI50: 2.75 µM
  TGI: 16.3 µM
[7]
  GI50: 5.14 µM
  TGI: 39.7 µM
[8]
  GI50: 2.32 µM
  TGI: 15.4 µM
[9]
  GI50: 16.9 µM
  TGI: 35.6 µM
[10]
  GI50: 12 µM
  TGI: 30.6 µM

## Cc1c(Cl)c(C)c(Cl)c(O)c1Cl
[1]
  TGI: > 100 µM
[2]
  TGI: 62.7 µM
[3]
  TGI: > 100 µM
[4]
  TGI: 65.8 µM
[5]
  TGI: 42.6 µM
[6]
  TGI: 63.9 µM
[7]
  TGI: 75.6 µM
[8]
  TGI: > 100 µM
[9]
  TGI: > 100 µM
[10]
  TGI: > 100 µM

## O=C1OCC2=C1C(c1cccc(Cl)c1)c1cc3c(cc1N2CCO)CCC3 (stereo not drawn)
[1]
  GI50: 0.0759 µM
  TGI: 11.9 µM
[2]
  GI50: 0.0493 µM
  TGI: 14.7 µM
[3]
  GI50: 0.0402 µM
  TGI: 4.05 µM
[4]
  GI50: 0.038 µM
  TGI: 4.12 µM
[5]
  GI50: 0.0515 µM
  TGI: 14.2 µM
[6]
  GI50: 0.0398 µM
  TGI: 11.8 µM
[7]
  GI50: 0.0471 µM
  TGI: 12.6 µM
[8]
  GI50: 0.0414 µM
  TGI: 23.2 µM
[9]
  GI50: 0.0478 µM
  TGI: 14.4 µM
[10]
  GI50: 0.0369 µM
  TGI: 16.4 µM

## CCc1ncc(CO)n1Cc1cccc2ccccc12
[1]
  TGI: > 100 µM
[2]
  TGI: > 100 µM
[3]
  TGI: > 100 µM
[4]
  TGI: > 100 µM
[5]
  TGI: > 100 µM
[6]
  TGI: > 100 µM
[7]
  TGI: > 100 µM
[8]
  TGI: > 100 µM
[9]
  TGI: > 100 µM
[10]
  TGI: > 100 µM

## O=C(/C=C/C=C/c1ccc2c(c1)OCO2)N/N=C\c1ccc(O)cc1O
[1]
  GI50: 2.98 µM
  TGI: 16.2 µM
[2]
  GI50: 2.24 µM
  TGI: 15.2 µM
[3]
  GI50: 2.92 µM
  TGI: 20.6 µM
[4]
  GI50: 1.58 µM
  TGI: 10.5 µM
[5]
  GI50: 1.47 µM
  TGI: 8.75 µM
[6]
  GI50: 2.86 µM
  TGI: 23.1 µM
[7]
  GI50: 0.776 µM
  TGI: 21.4 µM
[8]
  GI50: 2.55 µM
  TGI: 24 µM
[9]
  GI50: 1.61 µM
  TGI: 15.7 µM
[10]
  GI50: 2.83 µM
  TGI: 19.9 µM

## CCOc1ccc2c(c1)C(=O)c1c-2n(CCCN=[N+]=[N-])c(=O)c2cc([N+](=O)[O-])ccc12
[1]
  GI50: 5.3 µM
  TGI: > 100 µM
[2]
  GI50: 5.71 µM
  TGI: 89.2 µM
[3]
  GI50: 23.9 µM
  TGI: > 100 µM
[4]
  GI50: 0.284 µM
  TGI: 10.7 µM
[5]
  GI50: 2.23 µM
  TGI: 11.5 µM
[6]
  GI50: 15.1 µM
  TGI: > 100 µM
[7]
  GI50: 16.9 µM
  TGI: > 100 µM
[8]
  GI50: 0.102 µM
  TGI: 1.24 µM
[9]
  GI50: 3 µM
  TGI: 43.6 µM
[10]
  GI50: 3.42 µM
  TGI: > 100 µM

## COc1ncc(-c2ccc3nccc(C#CCCCCC(=O)NO)c3c2)cc1NS(=O)(=O)c1ccc(F)cc1F
[1]
  TGI: 17.5 µM
[2]
  GI50: 0.875 µM
  TGI: 11.8 µM
[3]
  GI50: 0.18 µM
  TGI: 12.1 µM
[4]
  GI50: 0.109 µM
  TGI: 11.2 µM
[5]
  GI50: 0.0737 µM
  TGI: 4 µM
[6]
  GI50: 0.0545 µM
  TGI: 4.8 µM
[7]
  GI50: 0.15 µM
  TGI: 13 µM
[8]
  TGI: 0.055 µM
[9]
  GI50: 0.125 µM
  TGI: 10 µM
[10]
  GI50: 0.158 µM
  TGI: 3.9 µM

## COc1ccc(/C=C/C(=O)/C=C(O)/C=C/c2ccc(OC)c(OC)c2)cc1OC
[1]
  GI50: 3.5 µM
  TGI: 90.9 µM
[2]
  GI50: 3.55 µM
  TGI: 23 µM
[3]
  GI50: 2.84 µM
  TGI: > 100 µM
[4]
  GI50: 4.6 µM
  TGI: > 100 µM
[5]
  GI50: 5.27 µM
  TGI: > 100 µM
[6]
  GI50: 2.88 µM
  TGI: > 100 µM
[7]
  GI50: 3.76 µM
  TGI: > 100 µM
[8]
  GI50: 76.9 µM
  TGI: > 100 µM
[9]
  GI50: 9.23 µM
  TGI: 49.2 µM
[10]
  GI50: 1.85 µM
  TGI: > 100 µM

## CN(C)CCCCNc1ccc(NCCCCN(C)C)c2c1C(=O)c1c(O)ccc(O)c1C2=O
[1]
  GI50: 13.1 µM
  TGI: 25.8 µM
[2]
  GI50: 8.15 µM
  TGI: 21.6 µM
[3]
  GI50: 1.51 µM
  TGI: 2.84 µM
[4]
  GI50: 1.59 µM
  TGI: 2.94 µM
[5]
  GI50: 1.43 µM
  TGI: 2.93 µM
[6]
  GI50: 1.94 µM
  TGI: 3.64 µM
[7]
  GI50: 1.55 µM
  TGI: 2.93 µM
[8]
  GI50: 18.5 µM
  TGI: 33.2 µM
[9]
  GI50: 1.7 µM
  TGI: 3.13 µM
[10]
  GI50: 1.51 µM
  TGI: 2.83 µM

## C=CC(=O)N1CCC[C@@H](n2nc(-c3ccc(Oc4ccccc4)cc3)c3c(N)ncnc32)C1
[1]
  GI50: > 4.69 µM
  TGI: > 10 µM
[2]
  GI50: > 6.12 µM
  TGI: > 10 µM
[3]
  GI50: > 8.92 µM
  TGI: > 10 µM
[4]
  GI50: > 10 µM
  TGI: > 10 µM
[5]
  GI50: 1.1 µM
  TGI: > 10 µM
[6]
  GI50: > 10 µM
  TGI: > 10 µM
[7]
  GI50: > 10 µM
  TGI: > 10 µM
[8]
  GI50: 0.0945 µM
  TGI: > 10 µM
[9]
  GI50: > 10 µM
  TGI: > 10 µM
[10]
  GI50: > 10 µM
  TGI: > 10 µM
